The term MIC denotes the lowest concentration found to suppress growth. By MIC50 is commonly meant an inhibitory concentration at the 50% level, which refers to growth in some studies and to a panel of isolates in others. The term MIC90 denotes the lowest concentration that inhibits either 90% of growth or 90% of the strains tested, depending on the study.

The record followed here is ChEMBL document CHEMBL1150412, “1,5-Diphenylpyrrole derivatives as antimycobacterial agents. Probing the influence on antimycobacterial activity of lipophilic substituents at the phenyl rings” (J Med Chem, 2008).

Converted amounts (≈) assume the structure as drawn.

One data set relates to Mycobacterium avium. As to the kind of experiment: Antimycobacterial activity against Mycobacterium avium CIP 103317. In kind it is functional.
The nature of data set [1]: Protection index, ratio of MNTD50 for african green monkey Vero cells to MIC for Mycobacterium tuberculosis 103471. The class given is functional.
For the next data set, the system named is Vero. As to the kind of experiment: Cytotoxicity against african green monkey Vero cells after 5 days. The class given is cell-based. As to conditions: chlorocebus sabaeus, 120 h.
The subject of data set [2] is Mycobacterium tuberculosis. As to the kind of experiment: Antimycobacterial activity against Mycobacterium tuberculosis 103471. In kind it is functional.
Data set [3] concerns Mycolicibacterium smegmatis. As to the kind of experiment: Antimycobacterial activity against Mycobacterium smegmatis CIP 103599. The class given is functional.
The subject of the next data set is Mycobacterium marinum. As to the kind of experiment: Antimycobacterial activity against Mycobacterium marinum CIP 6423. The class given is functional.
Data set [4] has as its system Mycobacterium tuberculosis. As to the kind of experiment: Antimycobacterial activity against Mycobacterium tuberculosis H37Rv in […] cells assessed as reduction in number of surviving bacteria at 0.5 ug/mL relative to control. The class given is functional.
Data set [5] relates to Mycobacterium tuberculosis. As to the kind of experiment: Antimycobacterial activity against Mycobacterium tuberculosis H37Rv in […] cells assessed as reduction in number of surviving bacteria at 1 ug/mL relative to control. In kind it is functional.
For data set [6], the system named is Mycobacterium tuberculosis. As to the kind of experiment: Antimycobacterial activity against Mycobacterium tuberculosis clinical isolates by agar dilution method. In kind it is functional. In general terms: In agar dilution, organisms are placed on agar that contains the substance at set levels.
Data set [7] deals with Mycobacterium tuberculosis. As to the kind of experiment: Antimycobacterial activity against Mycobacterium tuberculosis H37Rv in […] cells assessed as reduction in number of surviving bacteria at 0.25 ug/mL relative to control. In kind it is functional.
Data set [8] deals with Mycobacterium tuberculosis. As to the kind of experiment: Antimycobacterial activity against Mycobacterium tuberculosis H37Rv. In kind it is functional.

With `CCCc1ccc(-c2cc(CN3CCSCC3)c(C)n2-c2ccc(F)cc2)cc1`, the MIC is more than 16 µg/mL in the data set on Mycobacterium avium, 2 µg/mL (≈ 4.89 µM) in [2], more than 16 µg/mL in data set [3] and more than 16 µg/mL in the data set with Mycobacterium marinum. In [1], the Ratio was found to be 2. In addition, in the data set on Vero, the MNTD50 is 4 µg/mL.

Regarding `CCCc1ccc(-n2c(-c3ccc(Cl)cc3)cc(CN3CCSCC3)c2C)cc1`, the Activity in data set [4] turned out to be 85.79%; in data set [5], 98.79%; in data set [7], 21.05%. The compound also registered an MIC50 in data set [6] of 0.5 µg/mL (≈ 1.18 µM). Besides, the MIC90 in data set [6] was 1 µg/mL (≈ 2.35 µM). Further, the MIC was 16 µg/mL (≈ 37.6 µM) against Mycobacterium avium; 0.25 µg/mL (≈ 0.588 µM) in data set [2]; 0.25 µg/mL (≈ 0.588 µM) in [8]; more than 16 µg/mL in data set [3]; 16 µg/mL (≈ 37.6 µM) in the data set with Mycobacterium marinum. The Ratio in data set [1] was 128. The MNTD50 with Vero came to 32 µg/mL.

`CCc1ccc(-n2c(-c3ccc(Cl)cc3)cc(CN3CCSCC3)c2C)cc1`: the MIC in the data set with Mycobacterium avium amounted to 16 µg/mL (≈ 38.9 µM); in [2] it was 0.5 µg/mL (≈ 1.22 µM); in data set [8] it was 0.5 µg/mL (≈ 1.22 µM); in [3], 8 µg/mL (≈ 19.5 µM); with Mycobacterium marinum it was 4 µg/mL (≈ 9.73 µM). Moreover, in data set [1], the Ratio was determined as 32. In the data set with Vero, this compound displayed an MNTD50 of 16 µg/mL.

As for `Cc1c(CN2CCSCC2)cc(-c2ccc(F)cc2)n1-c1ccc(C(C)C)cc1`, the MIC in the data set on Mycobacterium avium is more than 16 µg/mL; in [2], 16 µg/mL (≈ 39.2 µM); in [3] it was 8 µg/mL (≈ 19.6 µM); in the data set with Mycobacterium marinum, more than 16 µg/mL. The Ratio in data set [1] came to 0.5. This compound came in with an MNTD50 in the data set with Vero of 8 µg/mL.

Turning to `CCCc1ccc(-c2cc(CN3CCSCC3)c(C)n2-c2ccc(Cl)cc2)cc1`, the MIC against Mycobacterium avium is 4 µg/mL (≈ 9.41 µM); in data set [2], 0.25 µg/mL (≈ 0.588 µM); in data set [8], 0.125 µg/mL (≈ 0.294 µM); in data set [3], more than 16 µg/mL; against Mycobacterium marinum it was 4 µg/mL (≈ 9.41 µM). Moreover, the Ratio in data set [1] worked out at 64. Also, in the data set on Vero, the MNTD50 was 16 µg/mL.

`CCc1ccc(-c2cc(CN3CCSCC3)c(C)n2-c2ccc(F)cc2)cc1`: the MIC in the data set on Mycobacterium avium was more than 16 µg/mL; in data set [2], 1 µg/mL (≈ 2.53 µM); in data set [3], more than 16 µg/mL; against Mycobacterium marinum it was more than 16 µg/mL. Also, the Ratio in data set [1] was found to be 16. The MNTD50 in the data set on Vero worked out at 16 µg/mL.

Turning to `Cc1ccc(-c2cc(CN3CCSCC3)c(C)n2-c2ccc(F)cc2)cc1`, the MIC turned out to be 8 µg/mL (≈ 21 µM) against Mycobacterium avium; 0.25 µg/mL (≈ 0.657 µM) in data set [2]; 0.125 µg/mL (≈ 0.328 µM) in data set [8]; 16 µg/mL (≈ 42 µM) in data set [3]; 8 µg/mL (≈ 21 µM) in the data set on Mycobacterium marinum. Also, the Ratio in [1] was 256. In addition, the MNTD50 in the data set on Vero amounted to 64 µg/mL.

Consider `CCCc1ccc(-n2c(-c3ccc(F)cc3)cc(CN3CCSCC3)c2C)cc1`, for which the minimal inhibitory concentration (MIC) is more than 16 µg/mL against Mycobacterium avium, 1 µg/mL (≈ 2.45 µM) in data set [2], 4 µg/mL (≈ 9.79 µM) in [3] and 16 µg/mL (≈ 39.2 µM) against Mycobacterium marinum. In addition, the Ratio in [1] came to 4. This compound also displayed an MNTD50 in the data set on Vero of 4 µg/mL.

On to `Cc1c(CN2CCSCC2)cc(-c2ccc(C(C)C)cc2)n1-c1ccc(F)cc1`, for which the MIC50 in [6] is 0.5 µg/mL (≈ 1.22 µM). In data set [6], the MIC90 is 0.5 µg/mL (≈ 1.22 µM). Further, the MIC in the data set with Mycobacterium avium was 4 µg/mL (≈ 9.79 µM); in [2], 0.25 µg/mL (≈ 0.612 µM); in data set [8] it was 0.25 µg/mL (≈ 0.612 µM); in [3] it was more than 16 µg/mL; against Mycobacterium marinum, 8 µg/mL (≈ 19.6 µM). Further, the Ratio in data set [1] was 128. The MNTD50 in the data set on Vero was determined as 32 µg/mL.

Consider `Cc1ccc(-c2cc(CN3CCSCC3)c(C)n2-c2ccc(Cl)cc2)cc1`, for which the MIC in the data set with Mycobacterium avium was 16 µg/mL (≈ 40.3 µM); in data set [2], 0.5 µg/mL (≈ 1.26 µM); in data set [8], 0.5 µg/mL (≈ 1.26 µM); in [3], more than 16 µg/mL; in the data set with Mycobacterium marinum, more than 16 µg/mL. For the same compound, the Ratio in data set [1] is given as 128. The MNTD50 with Vero worked out at 64 µg/mL.

As to `CCc1ccc(-n2c(-c3ccc(F)cc3)cc(CN3CCSCC3)c2C)cc1`, the MIC in the data set with Mycobacterium avium is more than 16 µg/mL; in data set [2] it was 2 µg/mL (≈ 5.07 µM); in data set [3], 2 µg/mL (≈ 5.07 µM); against Mycobacterium marinum, more than 16 µg/mL. Moreover, the Ratio in data set [1] is recorded as 1. Further, in the data set on Vero, the MNTD50 stood at 2 µg/mL.

Turning to `NNC(=O)c1ccncc1` [ISONIAZID], the MIC was found to be 0.125 µg/mL (≈ 0.911 µM) in data set [6]; 32 µg/mL (≈ 233 µM) against Mycobacterium avium; 0.125 µg/mL (≈ 0.911 µM) in data set [2]; 0.25 µg/mL (≈ 1.82 µM) in data set [8]; 64 µg/mL (≈ 467 µM) in data set [3]; 16 µg/mL (≈ 117 µM) in the data set with Mycobacterium marinum. Moreover, the MIC50 in [6] came out at 0.125 µg/mL (≈ 0.911 µM). The same compound yielded an MIC90 in [6] of 0.25 µg/mL (≈ 1.82 µM). Further, the Ratio in data set [1] is given as 128. The same compound showed an MNTD50 with Vero of 32 µg/mL.

For the compound `Cc1c(CN2CCSCC2)cc(-c2ccc(Cl)cc2)n1-c1ccc(C(C)C)cc1`, the Activity in data set [4] came out at 84.21%; in [5], 98.74%; in [7], 47.37%. The MIC was 0.25 µg/mL (≈ 0.588 µM) in data set [6]; 16 µg/mL (≈ 37.6 µM) against Mycobacterium avium; 0.25 µg/mL (≈ 0.588 µM) in data set [2]; 0.25 µg/mL (≈ 0.588 µM) in data set [8]; more than 16 µg/mL in data set [3]; 16 µg/mL (≈ 37.6 µM) with Mycobacterium marinum. This compound also had an MIC50 in data set [6] of 0.25 µg/mL (≈ 0.588 µM). This compound also displayed an MIC90 in data set [6] of 0.5 µg/mL (≈ 1.18 µM). The Ratio in [1] is reported as 128. In the data set with Vero, the MNTD50 was found to be 32 µg/mL.

Regarding `Cc1c(CN2CCN(C)CC2)cc(-c2ccc(Cl)cc2)n1-c1ccc(Cl)cc1`, the MIC was determined as 0.5 µg/mL (≈ 1.21 µM) with Mycobacterium avium; 1 µg/mL (≈ 2.41 µM) in [2]; 2 µg/mL (≈ 4.83 µM) in [8]; 25 µg/mL (≈ 60.3 µM) in [3]; 100 µg/mL (≈ 241 µM) in the data set with Mycobacterium marinum. Besides, the Ratio in data set [1] was determined as 4. Also, in the data set with Vero, the MNTD50 came out at 4 µg/mL.

`CCc1ccc(-c2cc(CN3CCSCC3)c(C)n2-c2ccc(Cl)cc2)cc1`: the MIC with Mycobacterium avium is 16 µg/mL (≈ 38.9 µM); in [2] it was 0.25 µg/mL (≈ 0.608 µM); in data set [8], 0.25 µg/mL (≈ 0.608 µM); in data set [3], 8 µg/mL (≈ 19.5 µM); with Mycobacterium marinum, 8 µg/mL (≈ 19.5 µM). The Ratio in data set [1] is on record as 64. In the data set with Vero, this compound showed an MNTD50 of 16 µg/mL.

Take `[H]/N=C(/N)N[C@H]1[C@H](O)[C@@H](O)[C@H](O[C@@H]2O[C@@H](C)[C@](O)(C=O)[C@H]2O[C@@H]2O[C@@H](CO)[C@H](O)[C@@H](O)[C@@H]2NC)[C@@H](N/C(N)=N\[H])[C@@H]1O` (stereo in doubt) [STREPTOMYCIN]: the MIC is 8 µg/mL (≈ 13.8 µM) with Mycobacterium avium; 0.5 µg/mL (≈ 0.86 µM) in data set [2]; 4 µg/mL (≈ 6.88 µM) in [8]; 8 µg/mL (≈ 13.8 µM) in data set [3]; 32 µg/mL (≈ 55 µM) with Mycobacterium marinum. Besides, in data set [1], the Ratio is more than 128. This compound also displayed an MNTD50 in the data set on Vero of more than 64 µg/mL.

For the compound `Cc1ccc(-n2c(-c3ccc(Cl)cc3)cc(CN3CCSCC3)c2C)cc1`, the MIC is more than 16 µg/mL against Mycobacterium avium; 0.5 µg/mL (≈ 1.26 µM) in [2]; 0.5 µg/mL (≈ 1.26 µM) in data set [8]; 16 µg/mL (≈ 40.3 µM) in data set [3]; 16 µg/mL (≈ 40.3 µM) against Mycobacterium marinum. In data set [1], the Ratio turned out to be 32. Besides, in the data set with Vero, the MNTD50 was determined as 16 µg/mL.

Take `CO[C@H]1/C=C/O[C@@]2(C)Oc3c(C)c(O)c4c(O)c(c(/C=N/N5CCN(C)CC5)c(O)c4c3C2=O)NC(=O)/C(C)=C\C=C\[C@H](C)[C@H](O)[C@@H](C)[C@@H](O)[C@@H](C)[C@H](OC(C)=O)[C@@H]1C` [RIFAMPIN]: the Activity turned out to be 98.42% in [4], 99.79% in data set [5] and 95.79% in [7]. In addition, the MIC in the data set on Mycobacterium avium was 0.25 µg/mL (≈ 0.304 µM); in data set [2] it was 0.25 µg/mL (≈ 0.304 µM); in [8], 0.25 µg/mL (≈ 0.304 µM); in [3], 32 µg/mL (≈ 38.9 µM); against Mycobacterium marinum, 0.5 µg/mL (≈ 0.608 µM). Moreover, in data set [1], the Ratio amounted to 256. This compound gave an MNTD50 in the data set with Vero of 64 µg/mL.

For `Cc1c(CN2CCSCC2)cc(-c2ccc(C(C)C)cc2)n1-c1ccc(Cl)cc1`, the MIC was found to be 8 µg/mL (≈ 18.8 µM) against Mycobacterium avium; 0.125 µg/mL (≈ 0.294 µM) in data set [2]; 0.125 µg/mL (≈ 0.294 µM) in data set [8]; 8 µg/mL (≈ 18.8 µM) in data set [3]; 4 µg/mL (≈ 9.41 µM) against Mycobacterium marinum. In addition, the Ratio in data set [1] was determined as 64. The MNTD50 in the data set with Vero worked out at 8 µg/mL.
